Experimental data reported in ChEMBL document CHEMBL3044666, “Synthesis, biological evaluation and molecular modeling studies of Schiff bases derived from 4-methylsalicylic acid as potential immunosuppressive agents” (Med Chem Res, 2013).

What was measured:
[1] = Immunosuppressive activity in BALB/C Mus musculus (mouse) lymph node cells assessed as inhibition of conA-induced proliferation incubated at 24 hr post conA-challenge measured after 72 hr by MTT assay; type: functional
[2] = Cytotoxicity against BALB/C Mus musculus (mouse) lymph node cells after 24 hr by MTT assay; type: cell-based
[3] = Selectivity index, ratio of CC50 for BALB/C Mus musculus (mouse) lymph node cells to IC50 for conA-induced BALB/C lymph node cells; type: functional
Mus musculus [4] = organism: Mus musculus; test: Induction of apoptosis in ConA-induced BALB/C Mus musculus (mouse) lymph node cells after 24 hr by AnnexinV-FITC based flow cytometric analysis; type: functional
[5] = biological target: Phosphatidylinositol 4,5-bisphosphate 3-kinase catalytic subunit gamma isoform (Homo sapiens, UniProt P48736); test: Inhibition of PI3Kgamma (unknown origin) using [33gammaP]ATP and phosphotidylinositol as substrate by scintillation proximity assay
Sequence of Phosphatidylinositol 4,5-bisphosphate 3-kinase catalytic subunit gamma isoform (P48736 whole entry, canonical isoform): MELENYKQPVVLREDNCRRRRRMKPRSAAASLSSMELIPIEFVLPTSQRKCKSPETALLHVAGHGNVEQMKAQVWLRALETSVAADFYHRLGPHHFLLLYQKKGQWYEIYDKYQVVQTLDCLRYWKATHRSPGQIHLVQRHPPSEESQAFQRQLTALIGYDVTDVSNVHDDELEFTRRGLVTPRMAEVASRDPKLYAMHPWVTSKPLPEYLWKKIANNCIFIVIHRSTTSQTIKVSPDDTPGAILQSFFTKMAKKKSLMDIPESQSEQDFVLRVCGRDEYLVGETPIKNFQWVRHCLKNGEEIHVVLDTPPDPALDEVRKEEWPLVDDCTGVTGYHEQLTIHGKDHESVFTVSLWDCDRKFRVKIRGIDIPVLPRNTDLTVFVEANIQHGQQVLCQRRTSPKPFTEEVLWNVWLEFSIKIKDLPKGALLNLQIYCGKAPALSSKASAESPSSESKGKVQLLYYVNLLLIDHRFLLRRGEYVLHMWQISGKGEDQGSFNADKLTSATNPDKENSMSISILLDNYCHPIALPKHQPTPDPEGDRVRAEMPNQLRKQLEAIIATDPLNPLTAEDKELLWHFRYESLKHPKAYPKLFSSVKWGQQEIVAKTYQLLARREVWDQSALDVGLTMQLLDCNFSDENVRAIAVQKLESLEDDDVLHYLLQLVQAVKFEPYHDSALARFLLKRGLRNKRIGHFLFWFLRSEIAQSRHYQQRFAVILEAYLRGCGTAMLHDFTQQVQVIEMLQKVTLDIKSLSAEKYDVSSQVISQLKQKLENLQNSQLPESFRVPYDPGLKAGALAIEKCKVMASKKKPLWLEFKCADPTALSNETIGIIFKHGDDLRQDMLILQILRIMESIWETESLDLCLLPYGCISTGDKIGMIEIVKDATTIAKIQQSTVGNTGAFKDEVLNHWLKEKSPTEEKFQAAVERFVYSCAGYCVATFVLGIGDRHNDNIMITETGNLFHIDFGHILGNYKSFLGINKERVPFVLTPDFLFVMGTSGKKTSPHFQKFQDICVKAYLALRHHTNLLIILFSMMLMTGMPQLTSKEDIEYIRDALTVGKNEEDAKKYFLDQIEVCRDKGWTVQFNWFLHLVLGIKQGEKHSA

[6] = Ratio of CsA CC50 to compound CC50 for BALB/C Mus musculus (mouse) lymph node cells; type: ADME
Mus musculus [7] = organism: Mus musculus; test: Induction of apoptosis in ConA-induced BALB/C Mus musculus (mouse) lymph node cells assessed as caspase3 activation after 24 hr by Western blot analysis; type: functional
[8] = biological target: Phosphatidylinositol 4,5-bisphosphate 3-kinase catalytic subunit gamma isoform (Mus musculus) (UniProt Q9JHG7); test: Inhibition of PI3Kgamma-mediated AKT Ser473 phosphorylation in ConA-induced BALB/C Mus musculus (mouse) lymph node cells after 24 hr by Western blot analysis
Sequence of Phosphatidylinositol 4,5-bisphosphate 3-kinase catalytic subunit gamma isoform (Mus musculus) (Q9JHG7 whole entry, looked up, canonical isoform): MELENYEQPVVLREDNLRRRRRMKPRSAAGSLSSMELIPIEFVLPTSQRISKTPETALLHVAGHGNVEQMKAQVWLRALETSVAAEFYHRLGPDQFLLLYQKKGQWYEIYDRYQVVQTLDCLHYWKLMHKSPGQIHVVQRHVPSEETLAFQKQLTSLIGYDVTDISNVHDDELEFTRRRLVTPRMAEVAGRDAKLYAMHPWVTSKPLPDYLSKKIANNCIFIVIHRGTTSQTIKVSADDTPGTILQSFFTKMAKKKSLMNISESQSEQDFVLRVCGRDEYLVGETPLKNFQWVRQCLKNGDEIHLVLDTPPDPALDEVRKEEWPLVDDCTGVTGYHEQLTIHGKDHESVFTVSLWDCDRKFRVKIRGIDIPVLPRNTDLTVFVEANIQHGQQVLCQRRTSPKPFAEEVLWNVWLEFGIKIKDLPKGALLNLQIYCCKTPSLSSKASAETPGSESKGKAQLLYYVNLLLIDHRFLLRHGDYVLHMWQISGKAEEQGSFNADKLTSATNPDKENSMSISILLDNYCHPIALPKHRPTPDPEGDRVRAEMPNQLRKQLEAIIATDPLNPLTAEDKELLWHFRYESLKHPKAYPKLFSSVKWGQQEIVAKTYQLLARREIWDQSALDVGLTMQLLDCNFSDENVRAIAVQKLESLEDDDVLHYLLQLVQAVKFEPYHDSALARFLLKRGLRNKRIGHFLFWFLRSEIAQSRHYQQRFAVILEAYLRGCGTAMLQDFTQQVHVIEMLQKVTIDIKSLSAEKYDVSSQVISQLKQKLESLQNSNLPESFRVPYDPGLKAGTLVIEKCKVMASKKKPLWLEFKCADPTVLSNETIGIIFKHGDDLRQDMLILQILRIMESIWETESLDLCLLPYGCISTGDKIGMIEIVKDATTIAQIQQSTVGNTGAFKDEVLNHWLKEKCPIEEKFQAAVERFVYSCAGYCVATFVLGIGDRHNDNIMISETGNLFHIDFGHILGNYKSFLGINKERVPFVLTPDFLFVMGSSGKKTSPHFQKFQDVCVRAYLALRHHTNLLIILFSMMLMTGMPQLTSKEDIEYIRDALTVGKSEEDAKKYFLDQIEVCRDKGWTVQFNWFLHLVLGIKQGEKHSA

SMILES	IC50 [1]	CC50 at 24 h [2]	Ratio CC50/IC50 [3]	Activity (Mus musculus [4])	IC50 [5]	selectivity ratio [6]	Activity (Mus musculus [7])	inhibition [8]
Cc1ccc(C(=O)N/N=C/c2cccc(Br)c2)c(O)c1	28.3 µM	113 µM	4.01	–	–	–	–	–
Cc1ccc(C(=O)N/N=C/c2ccc(F)cc2)c(O)c1	26.7 µM	568 µM	21.26	–	–	–	–	–
Cc1ccc(C(=O)N/N=C/c2cccc(F)c2)c(O)c1	31.2 µM	166 µM	3.72	–	–	–	–	–
Cc1ccc(C(=O)N/N=C/c2ccccc2Cl)c(O)c1	19.2 µM	125 µM	6.51	–	–	–	–	–
Cc1ccc(C(=O)N/N=C/c2cc(Cl)cc(Cl)c2O)c(O)c1	1.51 µM	708 µM	468.72	Dose-dependent effect	4.81 µM	–	–	–
Cc1ccc(C(=O)N/N=C/c2cccc(Cl)c2)c(O)c1	24.4 µM	636 µM	30.89	–	–	–	–	–
Cc1ccc(C(=O)N/N=C/c2ccccc2)c(O)c1	53.9 µM	578 µM	10.74	–	–	–	–	–
Cc1ccc(C(=O)N/N=C/c2cc(Cl)ccc2O)c(O)c1	1.29 µM	560 µM	433.84	–	3.69 µM	–	–	–
Cc1ccc(C(=O)N/N=C/c2ccc(Cl)cc2Cl)c(O)c1	9.78 µM	291 µM	29.79	–	–	–	–	–
COc1ccc(/C=N/NC(=O)c2ccc(C)cc2O)cc1	> 100 µM	723 µM	<7.23	–	–	–	–	–
Cc1ccc(C(=O)N/N=C/c2ccc(N(C)C)cc2)c(O)c1	> 100 µM	732 µM	<7.32	–	–	–	–	–
Cc1ccc(C(=O)N/N=C/c2cc(Br)cc(Br)c2O)c(O)c1	2.02 µM	979 µM	484.63	–	7.12 µM	–	–	–
Cc1ccc(C(=O)N/N=C/c2ccccc2O)c(O)c1	1.02 µM	761 µM	745.65	Dose-dependent effect	2.17 µM	50	Dose-dependent effect	Dose-dependent effect
Cc1ccc(C(=O)N/N=C/c2ccccc2[N+](=O)[O-])c(O)c1	> 100 µM	644 µM	<6.44	–	–	–	–	–
Cc1ccc(C(=O)N/N=C/c2cc(Br)ccc2O)c(O)c1	1.09 µM	1500 µM	1371.95	–	2.6 µM	–	–	–
Cc1ccc(C(=O)N/N=C/c2ccc([N+](=O)[O-])cc2)c(O)c1	24.3 µM	734 µM	30.23	–	–	–	–	–
Cc1ccc(C(=O)N/N=C/c2ccc(Cl)cc2)c(O)c1	12.3 µM	116 µM	9.45	–	–	–	–	–
COc1cccc(/C=N/NC(=O)c2ccc(C)cc2O)c1	20.6 µM	672 µM	32.64	–	–	–	–	–
Cc1ccc(C(=O)N/N=C/c2ccccc2F)c(O)c1	42.1 µM	362 µM	8.61	–	–	–	–	–
